Assay results published in patent US9963467B2, “Boronic acid derivatives and therapeutic uses thereof” (Rempex Pharmaceuticals, Inc., priority 2014, dated 2018).

Columns and labels:
KP1004 (KPC-2) [1] = test: Biapenem potentiation (MPC@1), KP1004; conditions: BLI with biapenem at 1 μg/mL
EC1010 (CMY-6) [2] = test: Tigemonam potentiation (MPC@4), EC1010; format: cell-based; conditions: BLI with tigemonam at 4 μg/mL
CTX-M-14 = CTX-M-14 (Escherichia coli, UniProt Q9L5C7); test: Ki, nitrocefin cleavage by purified enzyme, CTX-M-14; format: biochemical; conditions: nitrocefin reporter substrate; read-out: Ki (CTX-M-14, NCF)
Method in brief: (§1)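 Readout: nitrocefin hydrolysis, A490 recorded every 10 sec over 10 min. Enzyme and inhibitor (varied concentrations) preincubated 10 min, RT, in reaction buffer before substrate addition.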

KPC-2 = KPC-2 (Klebsiella pneumoniae, UniProt Q9F663); test: Ki, nitrocefin cleavage by purified enzyme, KPC-2; format: biochemical; conditions: nitrocefin reporter substrate; read-out: Ki (KPC-2, NCF)
Method in brief: as §1

ec308 (SHV-5) = test: Tigemonam potentiation (MPC@4), ec308; format: cell-based
Pa AmpC = Pa AmpC (Pseudomonas aeruginosa, UniProt P24735); test: Ki, nitrocefin cleavage by purified enzyme, Pa AmpC; format: biochemical; conditions: nitrocefin reporter substrate; read-out: Ki (Pa AmpC, NCF)
Method in brief: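 Nitrocefin hydrolysis by purified β-lactamase is followed at 490 nm every 10 sec for 10 min. Before substrate is added, enzyme sits with varying inhibitor concentrations for 10 min at room temperature. Ki comes from these cleavage profiles.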

KP1004 (KPC-2) [3] = test: Aztreonam potentiation (MPC@4), KP1004; format: cell-based; conditions: BLI with aztreonam at 4 μg/mL
KP1005 (CTX-M-14) [4] = test: Tigemonam potentiation (MPC@4), KP1005; format: cell-based; conditions: BLI with tigemonam at 4 μg/mL
P99 = P99 (Enterobacter cloacae, UniProt P05364); test: Ki, nitrocefin cleavage by purified enzyme, P99; format: biochemical; conditions: nitrocefin reporter substrate; read-out: Ki (P99, NCF)
Method in brief: as §1

OXA-48 = OXA-48 (Klebsiella pneumoniae, UniProt Q6XEC0); test: Ki, nitrocefin cleavage by purified enzyme, OXA-48; format: biochemical; conditions: nitrocefin reporter substrate; read-out: Ki (OXA-48, NCF)
Method in brief: as §1

ECL1002 [5] = test: Aztreonam potentiation (MPC@4), ECL1002; format: cell-based; conditions: BLI with aztreonam at 4 μg/mL
ec302 (TEM-10) [6] = test: Tigemonam potentiation (MPC@4), ec302; format: cell-based
ECL1002 [7] = test: Tigemonam potentiation (MPC@4), ECL1002; format: cell-based; conditions: BLI with tigemonam at 4 μg/mL
SHV-12 = SHV-12 (Klebsiella pneumoniae, UniProt P0AD64, E235K/G234S/L31Q); test: Ki, nitrocefin cleavage by purified enzyme, SHV-12; format: biochemical; conditions: nitrocefin reporter substrate; read-out: Ki (SHV-12, NCF)
Method in brief: as §1

KP1010 (SHV-12) = test: Tigemonam potentiation (MPC@4), KP1010; format: cell-based
KP1009 (CTX-M-15) [8] = test: Tigemonam potentiation (MPC@4), KP1009; format: cell-based; conditions: BLI with tigemonam at 4 μg/mL
ec302 (TEM-10) [9] = test: Aztreonam potentiation (MPC@4), ec302; format: cell-based; conditions: BLI with aztreonam at 4 μg/mL
EC1010 (CMY-6) [10] = test: organism not typed; format: cell-based
KP1005 (CTX-M-14) [11] = test: Aztreonam potentiation (MPC@4), KP1005; format: cell-based; conditions: BLI with aztreonam at 4 μg/mL
KP1086 (OXA-48) = test: Biapenem potentiation (MPC@1), KP1086; conditions: BLI with biapenem at 1 μg/mL
KP1009 (CTX-M-15) [12] = test: organism not typed; format: cell-based

Chain of KPC-2 (Q9F663 25-293, looked up, species assumed): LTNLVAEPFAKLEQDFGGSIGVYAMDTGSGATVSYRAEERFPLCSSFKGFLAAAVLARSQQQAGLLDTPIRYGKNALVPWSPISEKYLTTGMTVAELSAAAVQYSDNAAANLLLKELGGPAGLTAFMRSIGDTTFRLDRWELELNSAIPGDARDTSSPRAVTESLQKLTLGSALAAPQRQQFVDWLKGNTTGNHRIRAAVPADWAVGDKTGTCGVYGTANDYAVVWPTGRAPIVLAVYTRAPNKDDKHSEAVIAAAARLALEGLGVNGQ
Chain of SHV-12 (P0AD64 22-286 L31Q/G234S/E235K): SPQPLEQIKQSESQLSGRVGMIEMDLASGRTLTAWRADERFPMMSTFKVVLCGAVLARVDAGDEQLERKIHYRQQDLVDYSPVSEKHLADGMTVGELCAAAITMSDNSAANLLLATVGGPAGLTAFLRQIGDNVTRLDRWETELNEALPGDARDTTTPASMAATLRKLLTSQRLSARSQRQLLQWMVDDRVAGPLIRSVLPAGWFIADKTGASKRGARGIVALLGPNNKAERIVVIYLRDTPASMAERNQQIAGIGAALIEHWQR
Chain of P99 (P05364 21-381): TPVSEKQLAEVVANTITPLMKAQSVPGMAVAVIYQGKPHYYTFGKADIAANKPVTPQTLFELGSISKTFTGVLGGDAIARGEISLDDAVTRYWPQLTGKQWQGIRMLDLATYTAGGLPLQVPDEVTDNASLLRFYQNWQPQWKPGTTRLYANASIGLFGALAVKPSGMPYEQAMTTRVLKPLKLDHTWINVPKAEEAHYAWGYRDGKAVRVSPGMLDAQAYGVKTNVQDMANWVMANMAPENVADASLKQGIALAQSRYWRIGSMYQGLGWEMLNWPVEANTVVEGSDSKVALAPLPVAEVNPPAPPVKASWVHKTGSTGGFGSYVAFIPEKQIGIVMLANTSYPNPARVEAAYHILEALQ
Chain of CTX-M-14 (Q9L5C7 29-291): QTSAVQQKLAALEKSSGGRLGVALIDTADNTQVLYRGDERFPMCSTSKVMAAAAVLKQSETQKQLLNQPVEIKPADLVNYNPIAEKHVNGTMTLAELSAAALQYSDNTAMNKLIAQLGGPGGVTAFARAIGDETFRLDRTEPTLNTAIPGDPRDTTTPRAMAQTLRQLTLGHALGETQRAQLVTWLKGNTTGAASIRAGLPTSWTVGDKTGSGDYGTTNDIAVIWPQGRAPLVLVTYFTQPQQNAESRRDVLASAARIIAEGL
Chain of OXA-48 (Q6XEC0 23-265, looked up, species assumed): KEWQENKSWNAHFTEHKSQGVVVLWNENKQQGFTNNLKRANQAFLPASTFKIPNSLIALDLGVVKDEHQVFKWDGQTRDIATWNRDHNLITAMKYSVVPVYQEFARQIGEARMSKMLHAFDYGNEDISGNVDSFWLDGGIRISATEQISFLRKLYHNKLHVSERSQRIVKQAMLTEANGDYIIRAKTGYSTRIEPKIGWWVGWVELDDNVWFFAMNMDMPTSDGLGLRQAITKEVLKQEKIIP
Chain of Pa AmpC (P24735 27-397): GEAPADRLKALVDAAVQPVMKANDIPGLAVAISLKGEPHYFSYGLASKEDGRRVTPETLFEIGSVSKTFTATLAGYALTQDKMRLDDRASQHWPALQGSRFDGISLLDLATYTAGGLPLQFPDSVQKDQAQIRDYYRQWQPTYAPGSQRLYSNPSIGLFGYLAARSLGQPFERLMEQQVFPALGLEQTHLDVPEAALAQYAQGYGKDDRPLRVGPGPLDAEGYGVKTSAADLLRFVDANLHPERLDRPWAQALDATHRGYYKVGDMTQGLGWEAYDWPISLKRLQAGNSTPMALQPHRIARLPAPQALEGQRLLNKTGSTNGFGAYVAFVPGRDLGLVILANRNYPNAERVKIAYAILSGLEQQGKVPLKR

SMILES	BPM MPC1 KP1004 KPC-2 (KP1004 (KPC-2) [1])	TIG MPC4 CMY-6 EC1010 (EC1010 (CMY-6) [2])	Ki (CTX-M-14) [nM]	Ki (KPC-2) [nM]	TIG MPC4 SHV-5 ec308 (ec308 (SHV-5))	Ki (Pa AmpC) [nM]	AZT MPC4 KPC-2 KP1004 (KP1004 (KPC-2) [3])	TIG MPC4 CTX-M-14 KP1005 (KP1005 (CTX-M-14) [4])	Ki (P99) [nM]	Ki (OXA-48) [nM]	AZT MPC4 ECL1002 (ECL1002 [5])	TIG MPC4 TEM-10 ec302 (ec302 (TEM-10) [6])	TIG MPC4 ECL1002 (ECL1002 [7])	Ki (SHV-12) [nM]	TIG MPC4 SHV-12 KP1010 (KP1010 (SHV-12))	TIG MPC4 CTX-M-15 KP1009 (KP1009 (CTX-M-15) [8])	AZT MPC4 TEM-10 ec302 (ec302 (TEM-10) [9])	AZT MPC4 CMY-6 EC1010 (EC1010 (CMY-6) [10])	AZT MPC4 CTX-M-14 KP1005 (KP1005 (CTX-M-14) [11])	BPM MPC1 OXA-48 KP1086 (KP1086 (OXA-48))	other results
CSCC(=O)N[C@H]1Cc2ccc(Sc3nncn3C)c(C(=O)O)c2OB1O [Compound 35, (R)-2-hydroxy-7-(4-methyl-4H-1,2,4-triazol-3-ylthio)-3-(2-(methylthio)acetamido)-3,4-dihydro-2H-benzo[e][1,2]oxaborinine-8-carboxylic acid]	X (MIC of less than 1 μg/mL)	Y (MIC of 1 μg/mL to 10 μg/mL)	< 1	> 10	X (key: X: MIC of less than 1 μg/mL; Y: MIC of 1 μg/mL to 10 μg/mL; Z: MIC of greater than 10 μg/mL)	> 10	Y (MIC of 1 μg/mL to 10 μg/mL)	Y (MIC of 1 μg/mL to 10 μg/mL)	> 10	< 1	Y (MIC of 1 μg/mL to 10 μg/mL)	Y (key: X: MIC of less than 1 ng/mL; Y: MIC of 1 μg/mL to 10 μg/mL; Z: MIC of greater than 10 μg/mL)	Y (MIC of 1 μg/mL to 10 μg/mL)	< 1	X (key: X: MIC of less than 1 μg/mL; Y: MIC of 1 μg/mL to 10 μg/mL; Z: MIC of greater than 10 μg/mL)	Y (MIC of 1 μg/mL to 10 μg/mL)	Y (MIC of 1 μg/mL to 10 μg/mL)	Y (key: X: MIC of less than 1 ng/mL; Y: MIC of 1 μg/mL to 10 μg/mL; Z: MIC of greater than 10 μg/mL)	Y (MIC of 1 μg/mL to 10 μg/mL)	Z (MIC of greater than 10 μg/mL)	AZT MPC4 CTX-M-15 KP1009 (KP1009 (CTX-M-15) [12]): Y (key: X: MIC of less than 1 ng/mL; Y: MIC of 1 μg/mL to 10 μg/mL; Z: MIC of greater than 10 μg/mL)
CS(=O)(=O)CC(=O)N[C@H]1Cc2ccc(F)c(C(=O)O)c2OB1O [Compound 9, (R)-7-fluoro-2-hydroxy-3-(2-(methylsulfonyl)acetamido)-3,4-dihydro-2H-benzo[e][1,2]oxaborinine-8-carboxylic acid]	X (MIC of less than 1 μg/mL)	X (MIC of less than 1 μg/mL)	1 to 10	> 10	X (key: X: MIC of less than 1 μg/mL; Y: MIC of 1 μg/mL to 10 μg/mL; Z: MIC of greater than 10 μg/mL)	> 10	Y (MIC of 1 μg/mL to 10 μg/mL)	Y (MIC of 1 μg/mL to 10 μg/mL)	> 10	> 10	Y (MIC of 1 μg/mL to 10 μg/mL)	Z (key: X: MIC of less than 1 ng/mL; Y: MIC of 1 μg/mL to 10 μg/mL; Z: MIC of greater than 10 μg/mL)	X (MIC of less than 1 μg/mL)	< 1	X (key: X: MIC of less than 1 μg/mL; Y: MIC of 1 μg/mL to 10 μg/mL; Z: MIC of greater than 10 μg/mL)	Y (MIC of 1 μg/mL to 10 μg/mL)	Y (MIC of 1 μg/mL to 10 μg/mL)	Y (key: X: MIC of less than 1 ng/mL; Y: MIC of 1 μg/mL to 10 μg/mL; Z: MIC of greater than 10 μg/mL)	Y (MIC of 1 μg/mL to 10 μg/mL)	Z (MIC of greater than 10 μg/mL)	AZT MPC4 CTX-M-15 KP1009 (KP1009 (CTX-M-15) [12]): Y (key: X: MIC of less than 1 ng/mL; Y: MIC of 1 μg/mL to 10 μg/mL; Z: MIC of greater than 10 μg/mL)
